Source: US10882859B2, “Kinase inhibitors” (Topivert Pharma Limited, priority 2015, dated 2021)
In brackets after ≈: the same amount, converted by molar mass. Read-outs that look alike come from different tables or passages of the source.

Columns and labels:
JAK1 = JAK1 (Homo sapiens (Human), UniProt P23458); assay: KINOMEscan enzyme binding assay (DiscoveRx), JAK1; conditions: read-out: Dissociation Constant JAK1
Experimental: (§1) These assays may be conducted by DiscoveRx (formerly Ambit; San Diego, Calif.). The percentage inhibition produced by incubation with a test compound may be calculated relative to the non-inhibited control.

JAK2 = JAK2 (Homo sapiens (Human), UniProt O60674); assay: KINOMEscan enzyme binding assay (DiscoveRx), JAK2; conditions: read-out: Dissociation Constant JAK2
Chain of JAK2 (O60674 whole entry): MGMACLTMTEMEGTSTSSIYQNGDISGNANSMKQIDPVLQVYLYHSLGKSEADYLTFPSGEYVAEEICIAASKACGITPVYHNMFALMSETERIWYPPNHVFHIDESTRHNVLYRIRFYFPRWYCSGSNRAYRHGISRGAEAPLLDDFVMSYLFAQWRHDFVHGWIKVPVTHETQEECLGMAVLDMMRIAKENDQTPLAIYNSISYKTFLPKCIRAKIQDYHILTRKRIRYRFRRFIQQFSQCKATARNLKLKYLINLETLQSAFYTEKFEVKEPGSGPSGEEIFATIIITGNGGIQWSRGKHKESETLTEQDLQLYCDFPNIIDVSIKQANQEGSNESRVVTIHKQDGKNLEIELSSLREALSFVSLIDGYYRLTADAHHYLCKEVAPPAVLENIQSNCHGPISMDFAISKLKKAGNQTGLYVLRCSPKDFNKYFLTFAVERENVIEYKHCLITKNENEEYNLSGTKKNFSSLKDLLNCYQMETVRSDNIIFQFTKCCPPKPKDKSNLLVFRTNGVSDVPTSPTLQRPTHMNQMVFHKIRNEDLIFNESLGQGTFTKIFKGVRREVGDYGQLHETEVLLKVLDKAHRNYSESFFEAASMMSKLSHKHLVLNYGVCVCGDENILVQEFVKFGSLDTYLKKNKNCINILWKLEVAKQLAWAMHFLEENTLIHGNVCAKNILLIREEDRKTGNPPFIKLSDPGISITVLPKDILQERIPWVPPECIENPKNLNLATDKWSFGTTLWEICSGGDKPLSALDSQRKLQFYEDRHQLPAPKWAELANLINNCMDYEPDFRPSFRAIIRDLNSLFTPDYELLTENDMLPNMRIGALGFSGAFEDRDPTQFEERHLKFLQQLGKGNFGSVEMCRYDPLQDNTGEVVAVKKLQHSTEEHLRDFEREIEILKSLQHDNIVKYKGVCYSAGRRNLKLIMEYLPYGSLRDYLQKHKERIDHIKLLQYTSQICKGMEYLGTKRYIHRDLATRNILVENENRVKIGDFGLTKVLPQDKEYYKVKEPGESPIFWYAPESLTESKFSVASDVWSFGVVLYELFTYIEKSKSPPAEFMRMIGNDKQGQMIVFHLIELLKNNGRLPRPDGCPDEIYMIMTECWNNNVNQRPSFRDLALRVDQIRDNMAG
Experimental: as §1

JAK3 = JAK3 (Homo sapiens (Human), UniProt P52333); assay: KINOMEscan enzyme binding assay (DiscoveRx), JAK3; conditions: read-out: Dissociation Constant JAK3
Chain of JAK3 (P52333 whole entry): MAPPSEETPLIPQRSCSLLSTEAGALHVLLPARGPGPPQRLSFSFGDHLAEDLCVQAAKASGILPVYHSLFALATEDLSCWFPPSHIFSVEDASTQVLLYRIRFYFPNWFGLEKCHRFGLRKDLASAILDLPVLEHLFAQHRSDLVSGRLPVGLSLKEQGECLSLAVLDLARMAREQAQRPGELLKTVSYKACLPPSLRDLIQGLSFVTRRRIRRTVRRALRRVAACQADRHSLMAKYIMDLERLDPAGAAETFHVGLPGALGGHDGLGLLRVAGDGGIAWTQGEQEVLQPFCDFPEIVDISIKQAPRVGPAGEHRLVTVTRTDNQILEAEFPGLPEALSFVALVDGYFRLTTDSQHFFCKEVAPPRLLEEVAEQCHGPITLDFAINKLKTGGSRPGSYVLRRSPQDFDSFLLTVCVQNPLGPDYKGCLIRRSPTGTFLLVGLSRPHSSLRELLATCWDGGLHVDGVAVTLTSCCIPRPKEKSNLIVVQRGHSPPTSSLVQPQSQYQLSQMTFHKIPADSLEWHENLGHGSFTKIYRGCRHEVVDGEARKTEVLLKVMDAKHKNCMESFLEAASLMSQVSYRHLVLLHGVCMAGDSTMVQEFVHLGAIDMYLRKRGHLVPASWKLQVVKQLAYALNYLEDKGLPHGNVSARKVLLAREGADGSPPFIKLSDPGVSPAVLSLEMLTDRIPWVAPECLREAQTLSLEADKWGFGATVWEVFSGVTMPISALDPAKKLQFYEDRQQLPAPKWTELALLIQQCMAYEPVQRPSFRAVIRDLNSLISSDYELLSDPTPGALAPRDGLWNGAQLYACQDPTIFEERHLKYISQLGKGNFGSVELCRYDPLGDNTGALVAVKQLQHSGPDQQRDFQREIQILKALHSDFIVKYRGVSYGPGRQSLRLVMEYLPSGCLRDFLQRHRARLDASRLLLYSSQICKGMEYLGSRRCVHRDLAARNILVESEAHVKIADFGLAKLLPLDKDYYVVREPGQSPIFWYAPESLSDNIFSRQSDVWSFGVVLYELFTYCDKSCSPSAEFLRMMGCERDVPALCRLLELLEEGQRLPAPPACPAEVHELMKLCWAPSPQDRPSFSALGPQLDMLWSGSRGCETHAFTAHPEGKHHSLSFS
Experimental: as §1

TYK2 = TYK2 (Homo sapiens (Human), UniProt P29597); assay: KINOMEscan enzyme binding assay (DiscoveRx), TYK2; conditions: read-out: Dissociation Constant TYK2
Chain of TYK2 (P29597 whole entry): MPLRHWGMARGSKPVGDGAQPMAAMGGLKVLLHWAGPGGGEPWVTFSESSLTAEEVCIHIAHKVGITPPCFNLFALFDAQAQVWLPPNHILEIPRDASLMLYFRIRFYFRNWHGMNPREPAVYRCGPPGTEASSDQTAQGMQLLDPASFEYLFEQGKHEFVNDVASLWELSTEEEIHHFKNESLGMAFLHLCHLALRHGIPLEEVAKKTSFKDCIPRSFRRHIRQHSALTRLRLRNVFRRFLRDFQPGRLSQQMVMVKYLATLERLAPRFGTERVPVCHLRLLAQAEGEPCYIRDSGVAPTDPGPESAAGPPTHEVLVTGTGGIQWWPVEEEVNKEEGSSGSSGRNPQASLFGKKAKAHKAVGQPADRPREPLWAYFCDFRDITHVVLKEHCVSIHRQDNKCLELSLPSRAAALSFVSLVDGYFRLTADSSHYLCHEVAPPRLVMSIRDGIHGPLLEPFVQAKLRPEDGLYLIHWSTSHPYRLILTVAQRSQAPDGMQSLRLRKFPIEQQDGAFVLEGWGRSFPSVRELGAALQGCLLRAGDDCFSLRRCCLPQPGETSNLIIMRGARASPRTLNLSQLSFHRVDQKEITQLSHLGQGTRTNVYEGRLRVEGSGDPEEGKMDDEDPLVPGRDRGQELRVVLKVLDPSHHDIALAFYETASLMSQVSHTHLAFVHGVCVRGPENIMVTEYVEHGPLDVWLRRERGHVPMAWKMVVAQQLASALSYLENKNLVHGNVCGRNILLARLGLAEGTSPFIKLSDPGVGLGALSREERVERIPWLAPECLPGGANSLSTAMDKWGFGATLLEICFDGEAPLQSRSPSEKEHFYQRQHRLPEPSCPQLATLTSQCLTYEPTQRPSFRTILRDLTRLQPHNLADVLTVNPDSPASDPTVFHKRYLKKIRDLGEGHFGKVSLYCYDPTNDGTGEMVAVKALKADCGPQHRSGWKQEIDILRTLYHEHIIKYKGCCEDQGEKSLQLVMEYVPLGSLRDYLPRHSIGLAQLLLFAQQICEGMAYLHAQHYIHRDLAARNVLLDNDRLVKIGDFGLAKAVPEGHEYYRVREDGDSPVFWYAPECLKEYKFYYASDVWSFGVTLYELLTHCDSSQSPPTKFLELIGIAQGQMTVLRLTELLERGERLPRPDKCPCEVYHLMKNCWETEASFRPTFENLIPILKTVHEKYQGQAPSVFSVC
Experimental: as §1

[1] = system: CD3/IL2 stimulated PBMC cells; assay: IFNγ release from CD3/IL2 stimulated PBMC cells; assay type: cell-based; conditions: Homo sapiens, CD3/IL2 stimulation, 48 h, ELISA
Experimental: PBMCs from healthy subjects are separated from whole blood using a density gradient (Lymphoprep, Axis-Shield Healthcare). Cells are added to a 96 well plate, and compound at the desired concentration added 2 hours prior to stimulation with a mixture of monoclonal antibody to CD3 (1 μg/ml, eBioscience) and human recombinant IL2 (10 ng/ml, Peprotech). After 48 hours incubation under normal tissue culture conditions, supernatants are collected and IFNγ release determined by Sandwich ELISA (Duo-set, R&D System). The IC50 is determined from the dose response curve.

Jurkat cells = assay: Cell cytotoxicity assay (propidium iodide, flow cytometry); assay type: cell-based, human; conditions: 24 h
Experimental: 1×10^5 Jurkat cells (immortalised human T lymphocytes) are added to the appropriate number of wells of a 96 well plate in 100 μL of media (RPMI supplemented with 10% foetal bovine serum). 1 μL of DMSO control (final concentration 1.0% v/v) or test compound (final concentration 20, 5 or 1 μg/mL) is added to the wells and incubated at 37° C., 5% CO2. After 24 hours, the plate is centrifuged at 1200 rpm for 3 minutes and the supernatant discarded. Cells are then resuspended in 150 μL (final concentration 7.5 μg/mL) of propidium iodide (PI) in PBS and incubated at 37° C., 5% CO2 for 15 minutes. After 15 minutes, cells are analysed by flow cytometry (BD accuri) using the FL3 window. The % viability is calculated as the % of cells that are PI negative in the test wells normalised to the DMSO control.

[2] = Solubility in fasted-state simulated colonic fluid (FaSSCoF); assay type: physicochemical; conditions: 25 °C, pH 6.5, fassgf or other biorelevant, thermodynamic from solid, pH 6.5, 25° C.
Experimental: The solubilities of compounds of the invention in FaSSCoF at pH 6.5 are determined using a modification of a previously-reported procedure (Vertzoni, M., et al. Pharm. Res. 2010, 27, 2187-2196). In place of the bile salt extract employed in the original procedure (which extract is no longer available), the modified procedure uses a mixture of sodium taurochlorate (0.15 g), glycocholic acid (0.15 g), ursodeoxycholic acid (0.05 g), cholic acid (0.05 g), and glycodeoxycholic acid (0.05 g). These five bile acids are ground together with a mortar and pestle to produce a fine white powder that is incorporated into the FaSSCoF, as outlined below.
FaSSCoF medium: Tris(hydroxymethyl)aminomethane (Tris; 0.275 g) and maleic acid (0.44 g) are dissolved in water (35 mL) to give a solution whose pH is adjusted to 6.5 by treatment with 0.5M NaOH (ca. 12 mL). The solution is then made up to 50 mL with water. A portion of this Tris/maleate buffer solution (ca. 25 mL) is added to a 0.5 L round-bottomed flask, before being treated with 0.00565 g of the bile acid mixture described above. Solutions of phosphatidylcholine (0.0111 g) in DCM (0.15 mL) and palmitic acid (0.0013 g) in DCM (0.15 mL) are added, then the organic solvent is evaporated off under reduced pressure at 40° C. until a clear solution, with no perceptible DCM odour, is achieved. The volume of the evaporated solution is adjusted to 50 mL by addition of the remainder of Tris/maleate buffer, then BSA (0.115 g) is added, before being dissolved by gentle agitation.
Solubility Determination: Test compounds are suspended in the pH 6.5 FaSSCoF medium to give a maximum final concentration of 2-10 mg/mL. The suspensions are equilibrated at 25° C. for 24 h, before being filtered through a glass fibre C filter. The filtrates are then diluted as appropriate for injection and quantification by HPLC with reference to a standard. Different volumes of the standard, diluted and undiluted sample solutions are injected and the solubilities are calculated using the peak areas determined by integration of the peak found at the same retention time as the principal peak in the standard injection.

[3] = Systemic pharmacokinetics and total colon tissue distribution after single oral administration; assay type: in vivo, male C57BL/6 mice; conditions: mice, oral 10 mg/kg; for concentration at 0.5 h / concentration at 1 h / concentration at 2 h / concentration at 4 h / concentration at 6 h / concentration at 8 h / concentration at 12 h / concentration at 24 h: male, C57BL/6, mouse
Experimental: Studies were conducted by Sai Life Sciences (Hinjewadi, Pune, India) to investigate the systemic pharmacokinetics and total colon tissue distribution of compounds of the invention following a single oral administration in male C57BL/6 mice.
A group of twenty four male mice were administered with a solution of test compound formulated at a dose of 10 mg/10 mL/kg in aqueous hydroxypropyl-β-cyclodextrin (20% w/v in water). Blood samples ([…]) were collected from retro-orbital plexus of each mouse under light isoflurane anaesthesia such that the samples were obtained at 0.5, 1, 2, 4, 6, 8, 12 and 24 hr. The blood samples were collected from a set of three mice at each time point in a labeled micro centrifuge tube containing K2EDTA as anticoagulant. Plasma samples were separated by centrifugation at 4000 rpm for 10 min and stored below −70° C. until bioanalysis. After collection of blood sample, animals were humanely euthanized by carbon dioxide asphyxiation to collect total colon tissues. The colons were flushed with cold PBS (pH7.4) to remove contents. The total colon tissues were homogenized with cold PBS (pH7.4) of twice the weight of colon tissue and stored below −70° C. Total volume was three times the total colon tissue weights. All samples were processed for analysis by protein precipitation using acetonitrile and analyzed with a fit-for-purpose LC-MS/MS method. Pharmacokinetic parameters were calculated using the non-compartmental analysis tool of Phoenix WinNonlin® (Version 6.3).

[4] = total colon tissue, total colon, read-out: Mean total colon level
[5] = plasma, read-out: Mean plasma concentration

Chain of JAK1 (P23458 whole entry): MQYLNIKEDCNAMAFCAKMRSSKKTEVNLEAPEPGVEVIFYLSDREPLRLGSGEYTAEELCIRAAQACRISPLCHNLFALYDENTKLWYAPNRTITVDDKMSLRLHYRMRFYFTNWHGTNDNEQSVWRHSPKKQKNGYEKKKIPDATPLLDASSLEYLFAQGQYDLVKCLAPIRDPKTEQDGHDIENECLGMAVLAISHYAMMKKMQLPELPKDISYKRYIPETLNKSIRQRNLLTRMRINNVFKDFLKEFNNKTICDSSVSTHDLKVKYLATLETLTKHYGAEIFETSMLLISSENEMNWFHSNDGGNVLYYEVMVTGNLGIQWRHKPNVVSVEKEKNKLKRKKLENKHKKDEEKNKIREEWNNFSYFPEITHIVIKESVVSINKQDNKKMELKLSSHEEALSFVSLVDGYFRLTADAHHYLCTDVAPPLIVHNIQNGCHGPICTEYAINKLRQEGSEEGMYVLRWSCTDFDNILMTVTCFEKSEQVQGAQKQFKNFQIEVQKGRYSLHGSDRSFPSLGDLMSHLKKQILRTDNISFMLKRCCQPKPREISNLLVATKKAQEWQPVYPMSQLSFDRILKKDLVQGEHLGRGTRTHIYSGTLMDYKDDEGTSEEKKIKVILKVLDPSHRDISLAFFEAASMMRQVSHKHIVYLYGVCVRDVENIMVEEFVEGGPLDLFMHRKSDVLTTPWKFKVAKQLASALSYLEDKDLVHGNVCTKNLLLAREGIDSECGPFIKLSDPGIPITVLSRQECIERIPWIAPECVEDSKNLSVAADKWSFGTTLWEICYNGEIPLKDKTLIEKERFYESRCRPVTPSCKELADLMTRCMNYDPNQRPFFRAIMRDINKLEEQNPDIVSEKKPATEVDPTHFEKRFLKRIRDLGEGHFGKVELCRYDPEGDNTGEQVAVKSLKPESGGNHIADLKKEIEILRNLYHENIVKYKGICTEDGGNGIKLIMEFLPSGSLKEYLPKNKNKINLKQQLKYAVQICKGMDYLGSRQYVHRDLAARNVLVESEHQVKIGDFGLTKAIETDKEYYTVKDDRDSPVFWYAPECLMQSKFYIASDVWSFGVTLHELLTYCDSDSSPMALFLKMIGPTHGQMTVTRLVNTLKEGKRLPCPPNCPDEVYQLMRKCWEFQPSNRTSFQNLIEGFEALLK

CCc1cc(O)c(F)cc1-c1ccc2c(-c3nc4c([nH]3)CCN(C(=O)N3CCOCC3)C4)n[nH]c2c1 [Example 1, (2-(6-(2-Ethyl-5-fluoro-4-hydroxyphenyl)-1H-indazol-3-yl)-1,4,6,7-tetrahydro-5H-imidazo[4,5-c]pyridin-5-yl)(morpholino)methanone]
Kd (JAK1): 0.62 nM
Kd (JAK2): 0.052 nM
Kd (JAK3): 0.098 nM
Kd (TYK2): 0.11 nM
IC50 [1]: 3.6 nM
% viability at 1 μg/mL (Jurkat cells): 40%
solubility thermodynamic at 24 h ([2]; Run 1, read-out: pH 6.5 FaSSCoF Solubility, Run 1): 40 µg/mL (≈ 81.5 µM)
solubility thermodynamic at 24 h ([2]; Run 2, read-out: pH 6.5 FaSSCoF Solubility, Run 2): 20 µg/mL (≈ 40.8 µM)
concentration at 0.5 h [3, 4]: 327 ng/g
concentration at 1 h [3, 4]: 984 ng/g
concentration at 2 h [3, 4]: 19700 ng/g
concentration at 4 h [3, 4]: 4690 ng/g
concentration at 6 h [3, 4]: 8440 ng/g
concentration at 8 h [3, 4]: 11900 ng/g
concentration at 12 h [3, 4]: 4790 ng/g
concentration at 24 h [3, 4]: 350 ng/g
concentration at 0.5 h [3, 5]: 6.1 ng/mL
concentration at 1 h [3, 5]: 1.8 ng/mL
concentration at 2 h [3, 5]: 1.9 ng/mL
concentration at 4 h [3, 5]: 0 ng/mL
concentration at 6 h [3, 5]: 0 ng/mL
concentration at 8 h [3, 5]: 0 ng/mL
concentration at 12 h [3, 5]: 0 ng/mL
concentration at 24 h [3, 5]: 0 ng/mL
Systemic plasma exposure ([3]; plasma): very low
Colonic exposure AUC0-24 h ([3]; total colon): 132,979 h·ng/g
